From US6326378A, “Use of thiadiazolo[4,3-a]pyridine derivatives” (Roche Diagnostics GmbH, priority 1998, dated 2001)
Converted amounts (≈) assume the structure as drawn.

Legend:
[1] = system: T Lymphoblasts; assay: T Lymphoblasts, thymidine incorporation; type: cell-based; settings: no stimulus
Text: (§1) The compound from Example 2b inhibits the activation of various types of leucocytes under different stimuli.

[2] = system: dogs; assay: Toxicity / tolerability in dogs; type: in vivo, dog
Text: (§2) The behaviour of the dogs was normal.

[3] = molecular target: PDE IV; assay: PDE IV inhibition, isolated human enzyme preparations; type: biochemical; settings: isolated human enzyme preparation
Procedure: (§3) The IC50 values of the compound from Example 2b were determined to be 2×10^-5 mol/l (PDE IV) and 8×10^-5 mol/l (PDE III) on isolated human enzyme preparations.

[4] = system: mice; assay: Toxicity / tolerability in mice; type: in vivo, mouse; settings: p.o. and i.p.
Text: as §2

[5] = molecular target: PDE III; assay: PDE III inhibition, isolated human enzyme preparations; type: biochemical; settings: isolated human enzyme preparation
Procedure: as §3

[6] = system: guinea pigs; assay: Toxicity / tolerability in guinea pigs; type: in vivo, guinea pig; settings: p.o. and i.p.
Text: as §2

[7] = system: Lymphocytes; assay: Lymphocytes, ConA, thymidine incorporation; type: cell-based; settings: Lymphocyte; stimulus ConA
Text: as §1

[8] = system: conscious dogs (beagles); assay: Effect on heart rate and arterial blood pressure of conscious dogs; type: in vivo, dog; settings: for DBP / MAP / SBP / HR: 24 mg/kg oral
Procedure: as §2
Effect on heart rate and on arterial blood pressure
of conscious dogs after oral administration of 24 mg/kg of the compound of […]

[9] = system: Phagocytes (PMNs); assay: Phagocytes (PMNs), zymosan, chemiluminescence; type: cell-based; settings: stimulus zymosan
Text: as §1

[10] = system: Lymphocytes; assay: Lymphocytes, mixed lymphocytes reaction, thymidine incorporation; type: cell-based; settings: Lymphocyte; stimulus mixed lymphocytes reaction
Text: as §1

[11] = system: Peripheral leucocytes; assay: Peripheral leucocytes, LPS, secretion of TNFα; type: cell-based; settings: Leucocyte; stimulus LPS
Text: as §1

[12] = system: rats; assay: Toxicity / tolerability in rats; type: in vivo, rat
Text: as §2

[13] = system: Basophilic granulocytes; assay: Basophilic granulocytes, anti-IgE antibody, proteinase release; type: cell-based; settings: stimulus anti-IgE antibody
Text: as §1

[14] = conscious beagles, 24 mg/kg, observation period up to 6 h
[15] = conscious beagles, 24 mg/kg, up to 6 h after administration

SMILES: c1ccn2c(=Nc3ccncc3)snc2c1 [Example 2b, 3-(4-Pyridinylimino)-3H-[1,2,4]thiadiazolo[4,3-a]pyridine]
- IC50 [1]: 6.4 µg/mL (≈ 28 µM)
- behaviour of the dogs ([2]; conscious beagles, 24 mg/kg): normal
- emetic action ([2]; conscious beagles, 24 mg/kg): not detectable
- blood glucose [2, 14]: remained unchanged
- triglycerides [2, 14]: remained unchanged
- tolerability ([2]; dogs, p.o.): well tolerated
- GPT ([2]; sign of liver damage, conscious beagles, 24 mg/kg, observation period up to 6 h): remained unchanged
- IC50 [3]: 20 µM
- tolerability [4]: well tolerated
- IC50 [5]: 80 µM
- tolerability [6]: well tolerated
- IC50 [7]: 2.8 µg/mL (≈ 12.3 µM)
- arterial blood pressure [8, 15]: remained constant
- heart rate [8, 15]: remained constant
- DBP ([8]; edible oil + 2% DMSO, 30 min, preliminary value 66): 63 mmHg
- MAP ([8]; edible oil + 2% DMSO, 30 min, preliminary value 111): 113 mmHg
- SBP ([8]; edible oil + 2% DMSO, 30 min, preliminary value 171): 181 mmHg
- DBP ([8]; edible oil + 2% DMSO, 60 min, preliminary value 66): 57 mmHg
- HR ([8]; edible oil + 2% DMSO, 60 min, preliminary value 79): 82 beats/min
- MAP ([8]; edible oil + 2% DMSO, 60 min, preliminary value 111): 109 mmHg
- SBP ([8]; edible oil + 2% DMSO, 60 min, preliminary value 171): 178 mmHg
- DBP ([8]; edible oil + 2% DMSO, 90 min, preliminary value 66): 58 mmHg
- HR ([8]; edible oil + 2% DMSO, 90 min, preliminary value 79): 86 beats/min
- MAP ([8]; edible oil + 2% DMSO, 90 min, preliminary value 111): 107 mmHg
- SBP ([8]; edible oil + 2% DMSO, 90 min, preliminary value 171): 173 mmHg
- DBP ([8]; edible oil + 2% DMSO, 120 min, preliminary value 66): 60 mmHg
- HR ([8]; edible oil + 2% DMSO, 120 min, preliminary value 79): 82 beats/min
- MAP ([8]; edible oil + 2% DMSO, 120 min, preliminary value 111): 109 mmHg
- SBP ([8]; edible oil + 2% DMSO, 120 min, preliminary value 171): 175 mmHg
- DBP ([8]; edible oil + 2% DMSO, 150 min, preliminary value 66): 63 mmHg
- HR ([8]; edible oil + 2% DMSO, 150 min, preliminary value 79): 82 beats/min
- MAP ([8]; edible oil + 2% DMSO, 150 min, preliminary value 111): 113 mmHg
- SBP ([8]; edible oil + 2% DMSO, 150 min, preliminary value 171): 179 mmHg
- DBP ([8]; edible oil + 2% DMSO, 180 min, preliminary value 66): 66 mmHg
- HR ([8]; edible oil + 2% DMSO, 180 min, preliminary value 79): 87 beats/min
- MAP ([8]; edible oil + 2% DMSO, 180 min, preliminary value 111): 114 mmHg
- SBP ([8]; edible oil + 2% DMSO, 180 min, preliminary value 171): 179 mmHg
- DBP ([8]; edible oil + 2% DMSO, 210 min, preliminary value 66): 68 mmHg
- HR ([8]; edible oil + 2% DMSO, 210 min, preliminary value 79): 86 beats/min
- MAP ([8]; edible oil + 2% DMSO, 210 min, preliminary value 111): 114 mmHg
- SBP ([8]; edible oil + 2% DMSO, 210 min, preliminary value 171): 174 mmHg
- DBP ([8]; edible oil + 2% DMSO, 240 min, preliminary value 66): 64 mmHg
- HR ([8]; edible oil + 2% DMSO, 240 min, preliminary value 79): 93 beats/min
- MAP ([8]; edible oil + 2% DMSO, 240 min, preliminary value 111): 109 mmHg
- SBP ([8]; edible oil + 2% DMSO, 240 min, preliminary value 171): 169 mmHg
- DBP ([8]; edible oil + 2% DMSO, 300 min, preliminary value 66): 65 mmHg
- HR ([8]; edible oil + 2% DMSO, 300 min, preliminary value 79): 92 beats/min
- MAP ([8]; edible oil + 2% DMSO, 300 min, preliminary value 111): 110 mmHg
- SBP ([8]; edible oil + 2% DMSO, 300 min, preliminary value 171): 169 mmHg
- DBP ([8]; edible oil + 2% DMSO, 360 min, preliminary value 66): 70 mmHg
- HR ([8]; edible oil + 2% DMSO, 360 min, preliminary value 79): 91 beats/min
- MAP ([8]; edible oil + 2% DMSO, 360 min, preliminary value 111): 115 mmHg
- SBP ([8]; edible oil + 2% DMSO, 360 min, preliminary value 171): 174 mmHg
- HR ([8]; edible oil + 2% DMSO, 1 ml/kg, 30 min, preliminary value 79, average n=5): 117 beats/min
- DBP ([8]; methyl cellulose 1% + 2% DMSO, 30 min, preliminary value 70): 65 mmHg
- MAP ([8]; methyl cellulose 1% + 2% DMSO, 30 min, preliminary value 114): 114 mmHg
- SBP ([8]; methyl cellulose 1% + 2% DMSO, 30 min, preliminary value 172): 179 mmHg
- DBP ([8]; methyl cellulose 1% + 2% DMSO, 60 min, preliminary value 70): 66 mmHg
- HR ([8]; methyl cellulose 1% + 2% DMSO, 60 min, preliminary value 83): 79 beats/min
- MAP ([8]; methyl cellulose 1% + 2% DMSO, 60 min, preliminary value 114): 114 mmHg
- SBP ([8]; methyl cellulose 1% + 2% DMSO, 60 min, preliminary value 172): 178 mmHg
- DBP ([8]; methyl cellulose 1% + 2% DMSO, 90 min, preliminary value 70): 63 mmHg
- HR ([8]; methyl cellulose 1% + 2% DMSO, 90 min, preliminary value 83): 83 beats/min
- MAP ([8]; methyl cellulose 1% + 2% DMSO, 90 min, preliminary value 114): 110 mmHg
- SBP ([8]; methyl cellulose 1% + 2% DMSO, 90 min, preliminary value 172): 172 mmHg
- DBP ([8]; methyl cellulose 1% + 2% DMSO, 120 min, preliminary value 70): 64 mmHg
- HR ([8]; methyl cellulose 1% + 2% DMSO, 120 min, preliminary value 83): 80 beats/min
- MAP ([8]; methyl cellulose 1% + 2% DMSO, 120 min, preliminary value 114): 111 mmHg
- SBP ([8]; methyl cellulose 1% + 2% DMSO, 120 min, preliminary value 172): 173 mmHg
- DBP ([8]; methyl cellulose 1% + 2% DMSO, 150 min, preliminary value 70): 64 mmHg
- HR ([8]; methyl cellulose 1% + 2% DMSO, 150 min, preliminary value 83): 81 beats/min
- MAP ([8]; methyl cellulose 1% + 2% DMSO, 150 min, preliminary value 114): 112 mmHg
- SBP ([8]; methyl cellulose 1% + 2% DMSO, 150 min, preliminary value 172): 175 mmHg
- DBP ([8]; methyl cellulose 1% + 2% DMSO, 180 min, preliminary value 70): 65 mmHg
- HR ([8]; methyl cellulose 1% + 2% DMSO, 180 min, preliminary value 83): 76 beats/min
- MAP ([8]; methyl cellulose 1% + 2% DMSO, 180 min, preliminary value 114): 114 mmHg
- SBP ([8]; methyl cellulose 1% + 2% DMSO, 180 min, preliminary value 172): 178 mmHg
- DBP ([8]; methyl cellulose 1% + 2% DMSO, 210 min, preliminary value 70): 63 mmHg
- HR ([8]; methyl cellulose 1% + 2% DMSO, 210 min, preliminary value 83): 84 beats/min
- MAP ([8]; methyl cellulose 1% + 2% DMSO, 210 min, preliminary value 114): 109 mmHg
- SBP ([8]; methyl cellulose 1% + 2% DMSO, 210 min, preliminary value 172): 169 mmHg
- DBP ([8]; methyl cellulose 1% + 2% DMSO, 240 min, preliminary value 70): 62 mmHg
- HR ([8]; methyl cellulose 1% + 2% DMSO, 240 min, preliminary value 83): 74 beats/min
- MAP ([8]; methyl cellulose 1% + 2% DMSO, 240 min, preliminary value 114): 108 mmHg
- SBP ([8]; methyl cellulose 1% + 2% DMSO, 240 min, preliminary value 172): 167 mmHg
- DBP ([8]; methyl cellulose 1% + 2% DMSO, 300 min, preliminary value 70): 62 mmHg
- HR ([8]; methyl cellulose 1% + 2% DMSO, 300 min, preliminary value 83): 77 beats/min
- MAP ([8]; methyl cellulose 1% + 2% DMSO, 300 min, preliminary value 114): 108 mmHg
- SBP ([8]; methyl cellulose 1% + 2% DMSO, 300 min, preliminary value 172): 169 mmHg
- DBP ([8]; methyl cellulose 1% + 2% DMSO, 360 min, preliminary value 70): 65 mmHg
- HR ([8]; methyl cellulose 1% + 2% DMSO, 360 min, preliminary value 83): 75 beats/min
- MAP ([8]; methyl cellulose 1% + 2% DMSO, 360 min, preliminary value 114): 110 mmHg
- SBP ([8]; methyl cellulose 1% + 2% DMSO, 360 min, preliminary value 172): 170 mmHg
- HR ([8]; methyl cellulose 1% + 2% DMSO, 1 ml/kg, 30 min, preliminary value 83, average n=5): 85 beats/min
- IC50 [9]: 27 µg/mL (≈ 118 µM)
- IC50 [10]: 7.6 µg/mL (≈ 33.3 µM)
- IC50 [11]: < 3 µg/mL
- side effects (behaviour, body weight, histology, haematological and clinicochemical parameters) ([12]; after 2 weeks, 40 mg/kg daily): not possible to determine any side effects
- tolerability ([12]; p.o. and i.p.): well tolerated
- IC50 [13]: 10 µg/mL (≈ 43.8 µM)
